{"source": "patent EP4768485A1", "about": "(Guangzhou Baiyunshan Pharmaceutical Holdings Co., Ltd. …, priority 2023, dated 2025)", "key": {"[1]": {"biological_target": "EcFabI (Escherichia coli, UniProt P0AEK4)", "sequence (P0AEK4 whole entry)": "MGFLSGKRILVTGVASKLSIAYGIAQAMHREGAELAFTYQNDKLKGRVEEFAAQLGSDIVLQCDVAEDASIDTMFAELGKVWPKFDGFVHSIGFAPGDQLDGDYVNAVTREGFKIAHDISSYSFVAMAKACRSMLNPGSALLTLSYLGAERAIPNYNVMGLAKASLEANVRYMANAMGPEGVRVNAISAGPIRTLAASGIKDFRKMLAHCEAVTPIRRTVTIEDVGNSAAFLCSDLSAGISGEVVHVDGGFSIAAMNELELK", "assay": "FabI enzymatic activity by NADH/NADPH oxidation (fluorescence), EcFabI", "type": "biochemical", "settings": "9 nmol/L EcFabI; trans-dodecenoyl-CoA and NADH; pH 6.5", "experimental": "(§4) In this test example, the enzymatic activity was evaluated by monitoring the oxidation of cofactor NADH/NADPH using a microplate reader.\n(§5) The compound was dissolved in DMSO and added to a 384-well plate using ECHO665. Serial 3-fold or 4-fold dilutions were prepared to generate 10 dose points with two replicates per concentration, ensuring a final DMSO concentration 1% in each reaction well. Then, a FabI protein solution was added, and the protein was prepared in a buffer containing 100 mmol/L PBS, 0.05% Tween-20, and 150 mmol/L NaCl (pH 6.5), so that the final concentrations of SaFabI and EcFabI proteins were 15 nmol/L and 9 nmol/L, respectively. The prepared 5 µL of 15 nmol/L SaFabI and 9 nmol/L EcFabI were added to a 384-well assay plate, and centrifuged at 1000 rpm for 1 minute. Then, the plate was pre-incubated in a temperature-controlled shaker at 30 °C for 20 minutes. Moreover, substrates trans-octenoyl-CoA, NADPH, trans-dodecenoyl-CoA, and NADH were diluted in a buffer containing 100 mmol/L PBS, 0.05% Tween-20, and 15 0 mmol/L NaCl (pH 6.5) respectively, and their concentrations were adjusted to 300 µmol/L, 300 µmol/L, 600 µmol/L, and 150 µmol/L, respectively. For SaFabI, 5 µL of 300 µmol/L trans-octenoyl-CoA and 5 µL of 300 µmol/L NADPH were added to initiate the reaction. Immediately after initiation, the plate was placed into the microplate reader, and fluorescence signals (Ex 340 nm/Em 460 nm) were recorded every 0.5 minutes for at least 10 minutes. Similarly, 5 µL of 600 µmol/L trans-dodecenoyl-CoA and 5 µL of 150 µmol/L NADH were added to initiate reaction of EcFabI. Immediately after initiation, the plate was immediately placed into the microplate reader, and fluorescence signals (Ex 340 nm/Em 460 nm) were recorded every 0.5 minutes for at least 10 minutes. The reaction rate (fluorescence signal per minute) of each well was calculated from the fluorescence values. The inhibitory effect of the compound on the protein was then calculated based on the reaction rate, and the IC50 value for inhibition of enzyme activity by the compound was determined by fitting the data using GraphPad Prism 6 with log (inhibitor) vs. response variable slope model. The fitting equation is: Y=Bottom + (Top-Bottom)/(1+10^((LogIC50-X)*HillSlope)), wherein Y represents the known percentage of residual enzyme activity, and X represents the known Log concentration of the compound."}, "[2]": {"tested_on": "MRSA NRS 384", "assay": "MIC, agar plate two-fold dilution", "type": "cell-based, Staphylococcus aureus", "settings": "MRSA NRS 384; MHA, 37°C, 16-20 hours", "protocol": "(§1) In this test example, the minimum inhibitory concentration (MIC) of the compound was determined.\n(§2) The test drug concentration was set to be within a range of 0.008 µg/mL to 128 µg/mL in a two-fold serial dilution using an agar plate two-fold dilution method. The sample was dissolved in DMSO to prepare a 2 mL solution with a concentration of 1.92 mg/mL. The control group was prepared in sterile distilled water to obtain a concentration of 1.92 mg/mL. 1 mL of the prepared drug solution was added to a sterile culture dish, followed by addition of 14 mL of MHA culture medium at approximately 60°C. After thorough mixing, 1 mL of sterilized distilled water was added for two-fold dilution, resulting in a final drug concentration of 64 µg/mL, 32 µg/mL, 16 µg/mL, 8 µg/mL, 4 µg/mL, 2 µg/mL, 1 µg/mL, 0.5 µg/mL, 0.25 µg/mL, 0.125 µg/mL, 0.06 µg/mL, 0.03 µg/mL, 0.015 µg/mL, and 0.008 µg/mL (wherein the final concentrations of samples 2, 4, and 9 were diluted downward starting from 128 µg/mL), and set aside for later use. The prepared bacterial suspension was inoculated onto drug-containing MHA culture medium with a multi-point inoculator, with an inoculation volume of approximately 10^4 CFU per point. A sterile control group (1 mL DMSO + 14 mL MHA culture medium and 1 mL sterile distilled water + 14 mL MHA culture medium) was set up."}, "[3]": {"tested_on": "MSSA ATCC 29213", "assay": "MIC, agar plate two-fold dilution", "type": "cell-based, Staphylococcus aureus", "settings": "MSSA ATCC 29213; MHA, 37°C, 16-20 hours", "protocol": "as §1, §2"}, "[4]": {"tested_on": "VRSA VRS 1", "assay": "MIC, agar plate two-fold dilution", "type": "cell-based, Staphylococcus aureus", "settings": "VRSA VRS 1; MHA, 37°C, 16-20 hours", "protocol": "as §1, §2"}, "[5]": {"tested_on": "Acinetobacter baumannii ARLG 1852", "assay": "MIC, agar plate two-fold dilution", "type": "cell-based", "settings": "Acinetobacter baumannii ARLG 1852; MHA, 37°C, 16-20 hours", "protocol": "as §1, §2"}, "[6]": {"tested_on": "Escherichia coli. ATCC 25923", "assay": "MIC, agar plate two-fold dilution", "type": "cell-based", "settings": "Escherichia coli. ATCC 25923; MHA, 37°C, 16-20 hours", "protocol": "as §1, §2"}, "[7]": {"tested_on": "Klebsiella pneumoniae ATCC BAA 2472", "assay": "MIC, agar plate two-fold dilution", "type": "cell-based", "settings": "Klebsiella pneumoniae ATCC BAA 2472; MHA, 37°C, 16-20 hours", "protocol": "as §1, §2"}, "[8]": {"tested_on": "Acinetobacter baumannii ATCC17979", "assay": "MIC, antibacterial spectrum", "type": "cell-based", "protocol": "as §2\n(§3) Referring to the minimum inhibitory concentration test method mentioned above, the antibacterial spectrum of compound 1b was tested. […] Table 3 Antibacterial Spectrum Testing of Compound 1b MIC (µg/mL)"}, "[9]": {"tested_on": "Enterobacter cloacae ATCC13047", "assay": "MIC, antibacterial spectrum", "type": "cell-based", "protocol": "as §2, §3"}, "[10]": {"tested_on": "Enterococcus faecalis ATCC51299", "assay": "MIC, antibacterial spectrum", "type": "cell-based", "protocol": "as §2, §3"}, "[11]": {"tested_on": "Haemophilus influenzae ATCC29213", "assay": "MIC, antibacterial spectrum", "type": "cell-based", "protocol": "as §2, §3"}, "[12]": {"tested_on": "Klebsiella pneumoniae ATCC2055", "assay": "MIC, antibacterial spectrum", "type": "cell-based", "protocol": "as §2, §3"}, "[13]": {"tested_on": "Moraxella catarrhalis ATCC43617", "assay": "MIC, antibacterial spectrum", "type": "cell-based", "protocol": "as §2, §3"}, "[14]": {"tested_on": "Neisseria gonorrhoeae ATCC49226", "assay": "MIC, antibacterial spectrum", "type": "cell-based", "protocol": "as §2, §3"}, "[15]": {"tested_on": "Pseudomonas aeruginosa ATCC12055", "assay": "MIC, antibacterial spectrum", "type": "cell-based", "protocol": "as §2, §3"}, "[16]": {"tested_on": "Salmonella Typhi CMCC12055", "assay": "MIC, antibacterial spectrum", "type": "cell-based", "settings": "Salmonella enterica", "protocol": "as §2, §3"}, "[17]": {"tested_on": "Staphylococcus epidermidis ATCC35983", "assay": "MIC, antibacterial spectrum", "type": "cell-based", "protocol": "as §2, §3"}, "[18]": {"tested_on": "Staphylococcus haemolyticus CICC23976", "assay": "MIC, antibacterial spectrum", "type": "cell-based", "protocol": "as §2, §3"}, "[19]": {"tested_on": "Staphylococcus hominis ATCC27844", "assay": "MIC, antibacterial spectrum", "type": "cell-based", "protocol": "as §2, §3"}, "[20]": {"assay": "Pharmacokinetic study in rats", "type": "in vivo, Sprague-Dawley (SD) rats", "settings": "oral gavage", "protocol": "In this test experiment, a pharmacokinetic study of the compound in rats was conducted.\nTwelve healthy adult female Sprague-Dawley (SD) rats (purchased from Beijing Vital River Laboratory Animal Technology Co., Ltd., China) with an average body weight of about 180-220 g were selected, and divided into four groups (n=3 per group). Two groups were administered via tail vein injection, while the other two groups were administered via oral gavage. Compound 1b was dissolved in a vehicle containing 5% DMSO, 30% PEG400, and 65% H2O, and Debio-1450 was dissolved in physiological saline, both of which were formed into a stable clear solution for later use. Animals were fasted for 12 hours before administration and resumed normal feeding 2 hours post administration. Then, blood samples were collected through the jugular vein at the following time points: 0.083 h, 0.25 h, 0.5 h, 1 h, 2 h, 4 h, 8 h, 24 h (tail vein injection) and 0.25 h, 0.5 h, 1 h, 2 h, 4 h, 8 h, 24 h (oral gavage administration), respectively, with a blood collection volume of about 200-400 µL. Whole blood collected at each time point was immediately transferred into an anticoagulant tube containing K2EDTA, then stored on ice in an insulated container. All samples were centrifuged within 15 minutes at 4600 r/min and 4°C for 5 minutes to separate plasma. The concentration of the compound in the plasma of each rat was determined using LC-MS/MS method, and the pharmacokinetic parameter was calculated from the drug concentration-time profile. Table 4 Oral Pharmacokinetic Parameters of Compound 1b/Debio-1450 In Rats"}, "[21]": {"biological_target": "SaFabI (Staphylococcus aureus, UniProt Q6GI75)", "sequence (Q6GI75 whole entry)": "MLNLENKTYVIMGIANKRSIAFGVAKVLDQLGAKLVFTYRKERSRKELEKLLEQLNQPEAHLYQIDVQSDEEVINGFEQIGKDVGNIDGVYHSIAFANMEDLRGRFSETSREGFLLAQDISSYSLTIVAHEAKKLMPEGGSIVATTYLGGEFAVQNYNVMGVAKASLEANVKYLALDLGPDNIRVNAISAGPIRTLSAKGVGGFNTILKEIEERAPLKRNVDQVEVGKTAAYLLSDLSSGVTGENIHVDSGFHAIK", "assay": "FabI enzymatic activity by NADH/NADPH oxidation (fluorescence), SaFabI", "settings": "SaFabI IC50, 15 nmol/L SaFabI; trans-octenoyl-CoA and NADPH; pH 6.5", "experimental": "as §4, §5"}, "[22]": {"settings": "female, Sprague-Dawley, rat, in vivo, 15 mg/Kg, plasma"}}, "data": [{"molecule": "Cc1c(CN(C)C(=O)/C=C/c2cnc3c(c2)C2CC2(N)C(=O)N3)oc2c(C)cccc12", "note": "(stereo not drawn) [Compound 1b]", "values": [{"measurement": "IC50", "setting": "[1]", "value": 5, "unit": "nM"}, {"measurement": "Minimum Inhibitory Concentration MIC", "setting": "[2]", "value": "<8", "unit": "ng/mL"}, {"measurement": "Minimum Inhibitory Concentration MIC", "setting": "[3]", "value": "<8", "unit": "ng/mL"}, {"measurement": "Minimum Inhibitory Concentration MIC", "setting": "[4]", "value": 0.12, "unit": "µg/mL"}, {"measurement": "Minimum Inhibitory Concentration MIC", "setting": "[5]", "value": ">32", "unit": "µg/mL"}, {"measurement": "Minimum Inhibitory Concentration MIC", "setting": "[6]", "value": 4, "unit": "µg/mL"}, {"measurement": "Minimum Inhibitory Concentration MIC", "setting": "[7]", "value": 16, "unit": "µg/mL"}, {"measurement": "MIC", "setting": "[8]", "value": 32, "unit": "µg/mL"}, {"measurement": "MIC", "setting": "[9]", "value": 8, "unit": "µg/mL"}, {"measurement": "MIC", "setting": "[10]", "value": "> 64", "unit": "µg/mL"}, {"measurement": "antibacterial activity (in words)", "setting": "[11]", "value": "good antibacterial activity"}, {"measurement": "MIC", "setting": "[11]; ATCC29213", "value": 0.25, "unit": "µg/mL"}, {"measurement": "MIC", "setting": "[12]", "value": 8, "unit": "µg/mL"}, {"measurement": "antibacterial activity (in words)", "setting": "[13]; Moraxella catarrhalis", "value": "excellent antibacterial activity"}, {"measurement": "MIC", "setting": "[13]; Moraxella catarrhalis ATCC43617", "value": "< 0.06", "unit": "µg/mL"}, {"measurement": "MIC", "setting": "[14]", "value": 8, "unit": "µg/mL"}, {"measurement": "MIC", "setting": "[15]", "value": "> 64", "unit": "µg/mL"}, {"measurement": "MIC", "setting": "[16]", "value": 4, "unit": "µg/mL"}, {"measurement": "antibacterial activity (in words)", "setting": "[17]; Staphylococcus epidermidis", "value": "excellent antibacterial activity"}, {"measurement": "MIC", "setting": "[17]; Staphylococcus epidermidis ATCC35983", "value": "< 0.06", "unit": "µg/mL"}, {"measurement": "MIC", "setting": "[18]", "value": "< 0.06", "unit": "µg/mL"}, {"measurement": "antibacterial activity (in words)", "setting": "[19]; Staphylococcus hominis", "value": "excellent antibacterial activity"}, {"measurement": "MIC", "setting": "[19]; Staphylococcus hominis ATCC27844", "value": "< 0.06", "unit": "µg/mL"}, {"measurement": "Tmax", "setting": "[20]; [22]", "value": 1.5, "unit": "h"}, {"measurement": "half-life", "setting": "[20]; [22]", "value": 154, "unit": "min"}, {"measurement": "F", "setting": "[20]; 15 mg/Kg vs tail vein injection", "value": 110, "unit": "%"}, {"measurement": "IC50", "setting": "[21]", "value": 12, "unit": "nM"}]}]}
